According to patent publication US20090131459A1, “2-Thioxanthine Derivatives Acting as MPO-Inhibitors” (ASTRAZENECA AB, priority 2006, published 2009):

Target: T1, human MPO (Homo sapiens, UniProt P05164)
T1 sequence (P05164 49-745): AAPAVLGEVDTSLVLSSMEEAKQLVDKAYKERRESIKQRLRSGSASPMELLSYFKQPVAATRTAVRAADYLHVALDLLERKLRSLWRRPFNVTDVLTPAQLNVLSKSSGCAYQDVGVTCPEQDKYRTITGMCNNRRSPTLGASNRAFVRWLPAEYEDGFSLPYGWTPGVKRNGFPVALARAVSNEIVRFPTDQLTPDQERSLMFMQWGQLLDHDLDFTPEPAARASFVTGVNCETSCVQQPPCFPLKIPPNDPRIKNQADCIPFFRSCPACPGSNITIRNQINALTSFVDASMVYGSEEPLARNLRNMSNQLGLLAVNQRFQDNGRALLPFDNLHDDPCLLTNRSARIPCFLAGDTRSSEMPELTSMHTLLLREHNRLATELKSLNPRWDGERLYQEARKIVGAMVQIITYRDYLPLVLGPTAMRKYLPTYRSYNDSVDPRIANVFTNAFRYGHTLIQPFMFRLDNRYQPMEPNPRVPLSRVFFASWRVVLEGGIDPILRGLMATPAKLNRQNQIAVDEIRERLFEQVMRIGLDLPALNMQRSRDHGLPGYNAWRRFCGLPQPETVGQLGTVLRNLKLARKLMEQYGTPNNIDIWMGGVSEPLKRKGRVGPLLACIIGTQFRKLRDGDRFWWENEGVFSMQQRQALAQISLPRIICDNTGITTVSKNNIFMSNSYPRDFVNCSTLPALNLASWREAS
Test: MPO inhibition screen (TMB oxidation, with or without added tyrosine)
Type: biochemical
Conditions: in the presence of tyrosine
Method: Methods for the determination of MPO inhibitory activity are disclosed in patent application WO 02/090575. The pharmacological activity of compounds according to the invention was tested in the following screen in which the compounds were either tested alone or in the presence of added tyrosine:
Assay buffer: 20 mM sodium/potassium phosphate buffer pH 6.5 containing 10 mM taurine and 100 mM NaCl.
Developing reagent: 2 mM 3,3′,5,5′-tetramethylbenzidine (TMB), 200 μM KI, 200 mM acetate buffer pH 5.4 with 20% DMF.
To 10 μl of diluted compounds in assay buffer, 40 μl of human MPO (final concentration […]), with or without 20 μM tyrosine (final concentration, if present, 8 μM), was added and the mixture was incubated for 10 minutes at ambient temperature. Then 50 μl of H2O2 (final concentration 100 μM), or assay buffer alone as a control, were added. After incubation for 10 minutes at ambient temperature, the reaction was stopped by adding 10 μl 0.2 mg/ml of catalase (final concentration 18 μg/ml). The reaction mixture was left for an additional 5 minutes before 100 μl of TMB developing reagent was added. The amount of oxidised 3,3′,5,5′-tetramethylbenzidine formed was then measured after about 5 minutes using absorbance spectroscopy at about […]. IC50 values were then determined using standard procedures.

## CCOC(C)Cn1c(=S)[nH]c(=O)c2[nH]cnc21 (racemic) [Example 5, 3-(2-Ethoxy-propyl)-2-thioxanthine]
  IC50: 500 nM
